Data: patent publication US20110282056A1, “PROTEIN KINASE INHIBITORS AND USE THEREOF” (priority 2008, published 2011)

Key:
Format in all cases: biochemical
[1] = molecular target: T1, Flt3 (Homo sapiens, UniProt P36888); assay: Flt3 enzyme activity assay (Caliper LC3000 mobility shift); conditions: 350 uM ATP (Km), 3 nM Flt3, 90 minutes at RT
T1 construct: purchased BPS Bioscience; San Diego, Calif; 40225
T1 sequence (P36888 27-993): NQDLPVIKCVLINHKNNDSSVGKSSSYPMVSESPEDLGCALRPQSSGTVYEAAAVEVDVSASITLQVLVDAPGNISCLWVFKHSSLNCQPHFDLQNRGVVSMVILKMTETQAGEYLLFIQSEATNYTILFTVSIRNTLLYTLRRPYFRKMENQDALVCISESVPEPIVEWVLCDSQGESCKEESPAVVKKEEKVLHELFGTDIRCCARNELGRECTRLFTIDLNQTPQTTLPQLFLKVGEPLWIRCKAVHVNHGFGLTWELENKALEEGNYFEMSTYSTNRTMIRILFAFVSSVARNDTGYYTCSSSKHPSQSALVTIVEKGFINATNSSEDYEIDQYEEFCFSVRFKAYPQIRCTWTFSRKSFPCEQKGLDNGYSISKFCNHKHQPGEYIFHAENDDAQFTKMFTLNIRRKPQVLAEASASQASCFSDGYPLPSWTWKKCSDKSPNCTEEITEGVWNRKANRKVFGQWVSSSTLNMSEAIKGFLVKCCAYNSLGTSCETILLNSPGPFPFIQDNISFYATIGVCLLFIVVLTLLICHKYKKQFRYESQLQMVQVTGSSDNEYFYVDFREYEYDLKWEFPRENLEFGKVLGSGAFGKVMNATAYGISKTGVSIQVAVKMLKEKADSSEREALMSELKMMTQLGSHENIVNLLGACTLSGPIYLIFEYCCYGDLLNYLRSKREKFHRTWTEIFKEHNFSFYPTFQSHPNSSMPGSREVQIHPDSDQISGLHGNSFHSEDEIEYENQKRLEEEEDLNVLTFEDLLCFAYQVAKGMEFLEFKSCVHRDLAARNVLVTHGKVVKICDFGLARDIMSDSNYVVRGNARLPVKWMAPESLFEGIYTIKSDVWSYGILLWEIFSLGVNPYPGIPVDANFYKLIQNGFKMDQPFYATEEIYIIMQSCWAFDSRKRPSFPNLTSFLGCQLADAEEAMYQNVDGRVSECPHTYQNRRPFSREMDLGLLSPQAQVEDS
Protocol: (§1) Enzyme activity for VEGFR3, VEGFR2 and Flt3 were measured on the Caliper Life Sciences LC3000 (Hopkinton, Mass.). The system utilizes the principle of electroosmotic flow to separate and quantify the amount of phosphorylated-Fluorescein-labelled-peptide (product) from unphosphorylated-Fluorescein-labelled peptide (substrate). The amount of product and substrate are determined by measuring the peak heights from the electropherogram. The enzyme activity is then quantified by dividing the amount of product by the sum of the product and substrate. The inhibitory activity of a sample is measured by comparing the enzyme activity in the presence of sample versus the enzyme activity in the presence of dimethylsufoxide (DMSO). Specific assay conditions for each enzyme are listed below:
(§2) Flt3 assay: The peptide substrate at 1 uM (FITC-AHA-UEAIYAAPFAKKK-CONH2; synthesized at Tufts University, Boston, Mass.) was incubated with 350 uM of ATP, corresponding to the Michaelis-Menten (Km) constant of the enzyme/substrate reaction, and 3 nM of Flt3 (BPS Bioscience; San Diego, Calif.; Cat. No. 40225) for 90 minutes at RT. After 90 minutes, the reaction was stopped by the addition of 10 mM EDTA. The substrate and product were then separated on the LC3000.

[2] = molecular target: T2, VEGFR3 (Homo sapiens, UniProt P35916); assay: VEGFR3 enzyme activity assay (Caliper LC3000 mobility shift); conditions: 400 uM ATP (Km), 0.4 nM VEGFR3, 90 minutes at RT
T2 construct: purchased Millpore Corp. (Millipore) 14-681
T2 sequence (P35916 25-1363): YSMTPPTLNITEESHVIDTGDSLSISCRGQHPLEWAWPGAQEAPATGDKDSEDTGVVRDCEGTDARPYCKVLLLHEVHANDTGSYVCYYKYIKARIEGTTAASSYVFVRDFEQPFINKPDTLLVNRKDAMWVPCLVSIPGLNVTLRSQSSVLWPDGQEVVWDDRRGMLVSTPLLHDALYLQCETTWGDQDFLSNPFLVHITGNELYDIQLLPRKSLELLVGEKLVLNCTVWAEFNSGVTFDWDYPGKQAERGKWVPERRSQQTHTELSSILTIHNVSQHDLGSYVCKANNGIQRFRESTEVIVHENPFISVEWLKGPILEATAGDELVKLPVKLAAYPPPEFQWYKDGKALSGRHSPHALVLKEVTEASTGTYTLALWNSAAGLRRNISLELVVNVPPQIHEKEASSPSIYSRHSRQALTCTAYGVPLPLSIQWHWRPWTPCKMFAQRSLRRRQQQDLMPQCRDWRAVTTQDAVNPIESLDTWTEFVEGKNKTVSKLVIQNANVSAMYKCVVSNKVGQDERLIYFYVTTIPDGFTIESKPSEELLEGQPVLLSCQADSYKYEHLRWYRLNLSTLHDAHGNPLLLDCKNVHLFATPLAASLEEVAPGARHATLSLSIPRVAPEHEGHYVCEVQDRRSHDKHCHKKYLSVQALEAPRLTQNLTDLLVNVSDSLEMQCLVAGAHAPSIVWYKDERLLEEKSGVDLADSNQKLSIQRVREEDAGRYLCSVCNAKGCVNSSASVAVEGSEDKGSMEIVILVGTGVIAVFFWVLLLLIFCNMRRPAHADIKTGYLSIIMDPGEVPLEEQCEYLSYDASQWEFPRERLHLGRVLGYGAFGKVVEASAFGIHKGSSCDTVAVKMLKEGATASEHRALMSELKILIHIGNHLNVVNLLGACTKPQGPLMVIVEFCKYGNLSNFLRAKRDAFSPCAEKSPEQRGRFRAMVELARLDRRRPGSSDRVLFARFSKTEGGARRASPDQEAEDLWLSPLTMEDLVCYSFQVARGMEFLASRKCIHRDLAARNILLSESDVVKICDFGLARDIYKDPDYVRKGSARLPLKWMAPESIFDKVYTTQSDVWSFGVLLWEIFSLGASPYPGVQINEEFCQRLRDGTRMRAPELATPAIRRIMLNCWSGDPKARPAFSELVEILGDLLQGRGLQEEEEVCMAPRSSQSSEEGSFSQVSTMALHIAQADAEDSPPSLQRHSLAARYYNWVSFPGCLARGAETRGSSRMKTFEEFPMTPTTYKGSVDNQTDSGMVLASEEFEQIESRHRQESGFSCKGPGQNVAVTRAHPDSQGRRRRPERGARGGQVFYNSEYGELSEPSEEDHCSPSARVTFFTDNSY
Protocol: as §1
VEGFR3 assay: The peptide substrate at 1 uM (FITC-KKKKEEIYFFF-CONH2; synthesized at Tufts University, Boston, Mass.) was incubated with 400 uM of ATP, corresponding to the Michaelis-Menten (Km) constant of the enzyme/substrate reaction, and 0.4 nM of VEGFR3 (Millpore Corp., Cat. No. 14-681) for 90 minutes at RT. After 90 minutes, the reaction was stopped by the addition of 10 mM EDTA. The substrate and product were then separated on the LC3000.

[3] = molecular target: T3, VEGFR2 (Homo sapiens, UniProt P35968); assay: VEGFR2 enzyme activity assay (Caliper LC3000 mobility shift); conditions: 160 uM ATP (Km), 1 nM VEGFR2, 90 minutes at RT
T3 construct: purchased BPS Bioscience; San Diego, Calif; 40301
T3 sequence (P35968 20-1356): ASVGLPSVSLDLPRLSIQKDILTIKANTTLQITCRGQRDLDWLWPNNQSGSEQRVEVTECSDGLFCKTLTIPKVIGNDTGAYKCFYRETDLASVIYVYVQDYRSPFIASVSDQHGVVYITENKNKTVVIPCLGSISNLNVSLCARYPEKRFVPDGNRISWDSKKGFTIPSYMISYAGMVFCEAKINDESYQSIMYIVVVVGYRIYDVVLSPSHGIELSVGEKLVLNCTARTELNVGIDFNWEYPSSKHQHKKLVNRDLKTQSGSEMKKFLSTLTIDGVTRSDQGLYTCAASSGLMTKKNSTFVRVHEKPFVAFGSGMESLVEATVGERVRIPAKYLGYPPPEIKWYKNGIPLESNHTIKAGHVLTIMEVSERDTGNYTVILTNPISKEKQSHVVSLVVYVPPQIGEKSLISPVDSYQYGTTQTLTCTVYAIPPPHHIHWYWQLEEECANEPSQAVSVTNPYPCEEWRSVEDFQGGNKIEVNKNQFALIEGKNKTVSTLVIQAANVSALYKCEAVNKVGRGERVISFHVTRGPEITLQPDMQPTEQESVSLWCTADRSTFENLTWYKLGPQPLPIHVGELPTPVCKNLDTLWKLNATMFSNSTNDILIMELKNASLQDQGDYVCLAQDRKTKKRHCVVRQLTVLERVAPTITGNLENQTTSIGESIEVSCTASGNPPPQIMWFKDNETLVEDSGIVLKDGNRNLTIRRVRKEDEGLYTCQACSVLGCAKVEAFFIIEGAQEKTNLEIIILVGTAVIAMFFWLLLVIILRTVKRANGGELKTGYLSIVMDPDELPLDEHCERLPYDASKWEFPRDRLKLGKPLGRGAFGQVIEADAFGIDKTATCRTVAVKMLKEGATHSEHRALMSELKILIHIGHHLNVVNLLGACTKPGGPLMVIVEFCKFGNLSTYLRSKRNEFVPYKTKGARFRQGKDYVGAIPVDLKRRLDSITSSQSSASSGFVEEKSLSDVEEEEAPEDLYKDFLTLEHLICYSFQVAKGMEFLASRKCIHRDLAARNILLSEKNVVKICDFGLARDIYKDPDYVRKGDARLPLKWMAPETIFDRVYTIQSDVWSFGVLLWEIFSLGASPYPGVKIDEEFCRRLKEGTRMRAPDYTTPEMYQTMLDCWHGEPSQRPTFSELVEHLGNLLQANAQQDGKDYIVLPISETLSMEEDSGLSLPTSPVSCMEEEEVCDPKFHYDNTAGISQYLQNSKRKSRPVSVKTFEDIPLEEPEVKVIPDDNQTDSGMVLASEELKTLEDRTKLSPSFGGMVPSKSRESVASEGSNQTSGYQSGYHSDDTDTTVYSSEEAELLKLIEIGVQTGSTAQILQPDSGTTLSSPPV
Protocol: as §1
as §2, with “VEGFR2 assay:” for “Flt3 assay:”, “uM (5-FL-EEPLYWSFPAKKK-CONH2;” for “uM (FITC-AHA-UEAIYAAPFAKKK-CONH2;”, “with 160” for “with 350”, “and 1” for “and 3”, “of VEGFR2” for “of Flt3”, “No. 40301)” for “No. 40225)”

Structure (SMILES) | IC50 [1] [µM] | IC50 [2] [µM] | IC50 [3] [µM]
Cc1ccncc1C#Cc1ccnc2[nH]ccc12 [compound 57] | 0.1 to 1 | 0.1 to 1 | 0.1 to 1
Nc1cc(C#Cc2ccccc2CNC(=O)C(F)(F)F)ccn1 [compound 129] | > 1 | > 1 | > 1
COc1ccc(F)cc1C#Cc1ccnc2[nH]ccc12 [compound 49] | > 1 | 0.1 to 1 | > 1
CN(C)c1ccc(C#Cc2ncnc3sc4c(c23)CCCC4)cc1 [compound 125] | > 1 | > 1 | > 1
COc1cccc(C#Cc2ccnc3[nH]ccc23)n1 [compound 63] | > 1 | 0.1 to 1 | > 1
COc1cc(C#Cc2ccnc3[nH]ccc23)cc(OC)c1 [compound 74] | > 1 | > 1 | > 1
C(#Cc1ccnc2[nH]ccc12)c1cccc(Nc2ccccc2)c1 [compound 104] | > 1 | > 1 | > 1
C(#Cc1ccnc2[nH]ccc12)c1cccc(-c2cc[nH]n2)c1 [compound 53] | > 1 | 0.1 to 1 | > 1
C(#Cc1ccnc2[nH]ccc12)c1cccnc1 [compound 82] | > 1 | > 1 | > 1
CC(=O)Nc1ccccc1C#Cc1ccnc2[nH]ccc12 [compound 45] | > 1 | 0.1 to 1 | > 1
Cn1cncc1C#Cc1ccnc2[nH]ccc12 [compound 66] | 0.1 to 1 | 0.1 to 1 | 0.1 to 1
Cc1cccc(C#Cc2ccnc3[nH]ccc23)n1 [compound 76] | > 1 | > 1 | > 1
COc1cncc(C#Cc2ccnc3[nH]ccc23)c1 [compound 46] | 0.1 to 1 | 0.1 to 1 | 0.1 to 1
C(#Cc1ccnc2[nH]ccc12)c1ccc(-c2cccs2)cc1 [compound 126] | > 1 | > 1 | > 1
C(#Cc1ccnc2[nH]ccc12)c1ccc(-c2csnn2)cc1 [compound 136] | > 1 | > 1 | > 1
Cc1cccc(C)c1C#Cc1ccnc2[nH]ccc12 [compound 117] | > 1 | > 1 | > 1
C(#Cc1ccnc2[nH]ccc12)c1cncnc1 [compound 83] | > 1 | > 1 | > 1
N#Cc1ccc(C#Cc2ccnc3[nH]ccc23)cn1 [compound 110] | > 1 | > 1 | > 1
C(#Cc1ccnc2[nH]ccc12)c1ccc(-c2ccccc2)cc1 [compound 133] | > 1 | > 1 | > 1
C(#Cc1ccnc2[nH]ccc12)c1ccccc1-n1cccc1 [compound 58] | > 1 | 0.1 to 1 | > 1
CC(=O)c1ccc(C#Cc2ccnc3[nH]ccc23)nc1 [compound 115] | > 1 | > 1 | > 1
Cc1ccccc1C#Cc1ccnc2[nH]ccc12 [compound 69] | > 1 | 0.1 to 1 | > 1
COC(=O)c1ccc(C#Cc2ccnc3[nH]ccc23)cc1OC [compound 122] | > 1 | > 1 | > 1

Structure (SMILES) | IC50 [1] [µM] | IC50 [2] [µM] | IC50 [3] [µM]
N#CCc1ccc(C#Cc2ccnc3[nH]ccc23)cc1 [compound 61] | 0.1 to 1 | 0.1 to 1 | > 1
C(#Cc1ccnc2[nH]ccc12)c1ccc2c(c1)OCO2 [compound 72] | > 1 | 0.1 to 1 | > 1
CC(C)Oc1cccc(C#Cc2ccnc3[nH]ccc23)c1 [compound 102] | > 1 | > 1 | > 1
O=C(c1ccc(C#Cc2ccnc3[nH]ccc23)cc1)C1CC1 [compound 134] | > 1 | > 1 | > 1
CS(=O)(=O)c1ccc(C#Cc2ccnc3[nH]ccc23)cc1 [compound 81] | > 1 | > 1 | > 1
O=C(Cc1ccccc1C#Cc1ccnc2[nH]ccc12)N1CCC(F)(F)CC1 [compound 121] | > 1 | > 1 | > 1
FC(F)(F)c1ccccc1C#Cc1cnc2[nH]ccc2c1 [compound 105] | > 1 | > 1 | > 1
C(#Cc1ccnc2[nH]ccc12)c1ccccc1-c1ccccc1 [compound 127] | > 1 | > 1 | > 1
Cc1ccc(C#Cc2ccnc3[nH]ccc23)cc1 [compound 70] | > 1 | 0.1 to 1 | > 1
C(#Cc1cnc2[nH]ccc2c1)c1ccccc1 [compound 108] | > 1 | > 1 | > 1
C(#Cc1ccnc2[nH]ccc12)c1ccccn1 [compound 86] | > 1 | > 1 | > 1
COc1ccc(CNC(=O)Cc2ccccc2C#Cc2ccnc3[nH]ccc23)cc1 [compound 75] | > 1 | > 1 | > 1
COc1cccnc1C#Cc1ccnc2[nH]ccc12 [compound 84] | > 1 | > 1 | > 1
COc1ccc(C#Cc2cnc3[nH]ccc3c2)cc1 [compound 138] | > 1 | > 1 | > 1
O=C(NCc1ccccc1C#Cc1ccnc2[nH]ccc12)C(F)(F)F [compound 56] | > 1 | 0.1 to 1 | > 1
Cc1cc(C#Cc2ccnc3[nH]ccc23)ccc1C#N [compound 94] | > 1 | > 1 | > 1
Nc1ccc(C#Cc2cnc3[nH]ccc3c2)cc1 [compound 79] | 0.1 to 1 | > 1 | > 1
C[Si](C)(C)C#Cc1ncnc2[nH]ccc12 [compound 109] | > 1 | > 1 | > 1
FC(F)(F)Oc1ccccc1C#Cc1ccnc2[nH]ccc12 [compound 78] | > 1 | > 1 | > 1
Fc1cccc(C#Cc2ccnc3[nH]ccc23)c1 [compound 59] | > 1 | 0.1 to 1 | > 1
C(#Cc1ccnc2[nH]ccc12)c1ccncc1 [compound 87] | > 1 | > 1 | > 1
C(#Cc1ccnc2[nH]ccc12)c1ccccc1-c1cccs1 [compound 101] | > 1 | > 1 | > 1
C=Cc1cccc(C#Cc2ccnc3[nH]ccc23)c1 [compound 65] | > 1 | 0.1 to 1 | > 1
